Reference: paper PMC7150870 (Toxins, 2020)
Where two headings read alike, the source gives them in different places. Marks after values point to notes of the source that are not given here.

Key:
Caco-2 cells [1] = details: cited from earlier work
mice = details: mouse, in vivo, po; cited from earlier work
Caco-2 cells [2] = system: Caco-2 cells
HEK 293T cells = details: for comet tails (percentage of DNA): 25 µM, 24 h
cells = details: cited from earlier work
epithelial cell layers = details: after 24 h; cited from earlier work
[3] = system: TK6, and human hepatic HepaRG cells; details: 25 µM; cited from earlier work
HEK293T = format: cell-based, human
P-gp = P-gp (Homo sapiens, UniProt P08183)
[4] = system: human colon adenocarcinoma HT29 cells; details: cited from earlier work
in vitro = details: human (HepG2, Caco-2, HEK 293T); mouse (RAW 264.7)
[5] = system: HepG2, Caco-2, RAW 264.7, and HEK 293T cells
[6] = system: human small intestinal cells; details: read-out: IC50 (not achieved up to); cited from earlier work
Caco-2 cells [7] = details: cited from earlier work; remark: listed apart in the source
[8] = human (Caco-2), mouse (RAW 264.7)

Sequence of P-gp (P08183 whole entry, looked up): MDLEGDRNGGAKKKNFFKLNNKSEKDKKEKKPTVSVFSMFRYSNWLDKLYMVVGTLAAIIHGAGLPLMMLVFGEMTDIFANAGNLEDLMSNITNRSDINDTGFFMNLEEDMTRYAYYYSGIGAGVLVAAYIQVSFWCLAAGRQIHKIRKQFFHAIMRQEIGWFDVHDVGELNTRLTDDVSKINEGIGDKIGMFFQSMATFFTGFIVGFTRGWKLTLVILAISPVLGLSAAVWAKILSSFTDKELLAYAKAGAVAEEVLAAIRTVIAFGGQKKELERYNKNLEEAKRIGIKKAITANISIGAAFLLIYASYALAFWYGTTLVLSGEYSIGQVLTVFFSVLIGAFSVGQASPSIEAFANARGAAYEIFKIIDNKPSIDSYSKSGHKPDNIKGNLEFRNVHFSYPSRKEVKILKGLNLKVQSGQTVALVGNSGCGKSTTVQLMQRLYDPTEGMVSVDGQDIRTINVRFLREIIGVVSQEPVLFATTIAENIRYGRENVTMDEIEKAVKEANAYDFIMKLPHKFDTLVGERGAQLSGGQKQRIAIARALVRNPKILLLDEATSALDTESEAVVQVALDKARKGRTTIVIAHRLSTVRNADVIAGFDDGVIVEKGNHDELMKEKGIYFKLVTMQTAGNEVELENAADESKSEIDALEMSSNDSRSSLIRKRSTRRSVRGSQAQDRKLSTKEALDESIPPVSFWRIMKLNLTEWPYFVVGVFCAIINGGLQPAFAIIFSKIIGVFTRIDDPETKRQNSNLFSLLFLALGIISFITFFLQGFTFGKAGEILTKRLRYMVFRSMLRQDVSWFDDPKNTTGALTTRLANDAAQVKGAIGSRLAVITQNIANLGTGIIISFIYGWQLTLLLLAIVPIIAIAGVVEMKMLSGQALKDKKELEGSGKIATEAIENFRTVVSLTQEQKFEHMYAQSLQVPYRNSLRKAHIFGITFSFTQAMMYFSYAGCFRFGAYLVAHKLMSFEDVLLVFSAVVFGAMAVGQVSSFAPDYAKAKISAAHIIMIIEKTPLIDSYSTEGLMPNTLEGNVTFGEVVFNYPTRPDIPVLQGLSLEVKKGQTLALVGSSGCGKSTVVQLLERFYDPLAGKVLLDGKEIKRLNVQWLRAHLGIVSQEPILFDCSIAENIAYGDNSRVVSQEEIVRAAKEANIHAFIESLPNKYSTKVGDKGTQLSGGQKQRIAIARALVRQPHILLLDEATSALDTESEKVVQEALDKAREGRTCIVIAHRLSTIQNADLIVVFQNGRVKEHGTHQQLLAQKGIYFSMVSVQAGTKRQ

C[C@H]1CCC[C@H](O)CCC/C=C/c2cc(O)cc(O)c2C(=O)O1 [α-ZEA]
share of total metabolites produced by Caco-2 cells (Caco-2 cells [1]): 41%

CC1=C[C@H]2O[C@@H]3[C@H](O)C[C@](C)([C@@]2(CO)[C@H](O)C1=O)[C@]31CO1 [DON, deoxynivalenol]
LD50 for mice (mice): 46 to 78 mg/kg
transepithelial transport, Apical Medium (Caco-2 cells [2]; [8]): 73.33 ± 2.90^f %
transepithelial transport, Basolateral Medium (Caco-2 cells [2]; [8]): 21.48 ± 0.91^cde %
transepithelial transport, Caco-2 Cells (Caco-2 cells [2]; [8]): 0.00 ± 0.00^a %
transepithelial transport, Raw 264.7 Cells (Caco-2 cells [2]; [8]): 0.01 ± 0.00^a %
transepithelial transport, Total (Caco-2 cells [2]; [8]): 94.83 ± 2.14^e %
percentage of DNA in comet tail with respect to the negative control (HEK 293T cells): significantly increased
concentration with statistically significant decrease in viability of cells (cells): 1 µM
transport through the epithelial cell layers (epithelial cell layers): up to 38%
genotoxicity [3]: failed to induce genotoxicity
combination index, mixture of DAS (6.58 nM) (HEK293T): 0.88 ± 0.17 Syn
combination index, mixture of HT-2 (21.22 nM) (HEK293T): 0.87 ± 0.04 Syn
combination index, mixture of T-2 (3.87 nM) (HEK293T): 1.29 ± 0.13 Ant
type of interaction, mixture of DAS (6.58 nM) (HEK293T): 0.88 ± 0.17 Syn (key: Syn: Combination index (CI) < 0.9; Add: 0.9 ≤ CI ≤ 1; Ant: CI > 1)
type of interaction, mixture of HT-2 (21.22 nM) (HEK293T): 0.87 ± 0.04 Syn (key: Syn: Combination index (CI) < 0.9; Add: 0.9 ≤ CI ≤ 1; Ant: CI > 1)
type of interaction, mixture of T-2 (3.87 nM) (HEK293T): 1.29 ± 0.13 Ant (key: Syn: Combination index (CI) < 0.9; Add: 0.9 ≤ CI ≤ 1; Ant: CI > 1)
P-gp activation (ATP consumption) (P-gp): activated P-gp in dose-dependent manner

Cc1cc(O)cc2oc(=O)c3c(O)cc(O)cc3c12 [AOH, alternariol]
metabolites found by non-target U-HPLC-MS analysis (Caco-2 cells [2]; [8]): 3-O-glucuronide and 9-O-glucuronide
transepithelial transport, Apical Medium (Caco-2 cells [2]; [8]): 39.00 ± 22.02^cd %
transepithelial transport, Basolateral Medium (Caco-2 cells [2]; [8]): 59.97 ± 2.86^h %
transepithelial transport, Caco-2 Cells (Caco-2 cells [2]; [8]): 0.04 ± 0.02^a %
transepithelial transport, Raw 264.7 Cells (Caco-2 cells [2]; [8]): 0.07 ± 0.02^h %
transepithelial transport, Total (Caco-2 cells [2]; [8]): 99.08 ± 24.47^e %
percentage of DNA in comet tail with respect to the negative control (HEK 293T cells): significantly increased
comet tails (percentage of DNA) (HEK 293T cells): about 55%
concentration with statistically significant decrease in viability of cells (cells): 50 µM
concentrations significantly increasing the rate of DNA breaks [4]: ≥ 1000 nM
combination index, mixture of DAS (6.58 nM) (HEK293T): 0.91 ± 0.07 Add
combination index, mixture of HT-2 (21.22 nM) (HEK293T): 0.92 ± 0.02 Add
combination index, mixture of T-2 (3.87 nM) (HEK293T): 1.00 ± 0.09 Add
type of interaction, mixture of DAS (6.58 nM) (HEK293T): 0.91 ± 0.07 Add (key: Syn: Combination index (CI) < 0.9; Add: 0.9 ≤ CI ≤ 1; Ant: CI > 1)
type of interaction, mixture of HT-2 (21.22 nM) (HEK293T): 0.92 ± 0.02 Add (key: Syn: Combination index (CI) < 0.9; Add: 0.9 ≤ CI ≤ 1; Ant: CI > 1)
type of interaction, mixture of T-2 (3.87 nM) (HEK293T): 1.00 ± 0.09 Add (key: Syn: Combination index (CI) < 0.9; Add: 0.9 ≤ CI ≤ 1; Ant: CI > 1)
IC50 (in vitro): > 50 nM
P-gp activation (ATP consumption) (P-gp): activated P-gp in dose-dependent manner

COc1cc(O)c2c(=O)oc3cc(O)cc(C)c3c2c1 [AME, alternariol-9-methyl ether]
metabolites found by non-target U-HPLC-MS analysis (Caco-2 cells [2]): 3-O-glucuronide, 7-O-glucuronide, and 3-O-sulfate
transepithelial transport, Apical Medium (Caco-2 cells [2]): 35.92 ± 1.53^c %
transepithelial transport, Basolateral Medium (Caco-2 cells [2]): 17.68 ± 0.86^bcd %
transepithelial transport, Caco-2 Cells (Caco-2 cells [2]): 0.49 ± 0.02^ab %
transepithelial transport, Raw 264.7 Cells (Caco-2 cells [2]): 0.01 ± 0.00^ab %
transepithelial transport, Total (Caco-2 cells [2]): 53.94 ± 1.59^bc %
percentage of DNA in comet tail with respect to the negative control (HEK 293T cells): significantly increased
comet tails (percentage of DNA) (HEK 293T cells): ~42%
concentration with statistically significant decrease in viability of cells (cells): 25 µM
concentrations significantly increasing the rate of DNA breaks [4]: ≥ 1000 nM
IC50 [5]: > 50 nM
combination index, mixture of DAS (6.58 nM) (HEK293T): 0.90 ± 0.05 Add
combination index, mixture of HT-2 (21.22 nM) (HEK293T): 0.92 ± 0.06 Add
combination index, mixture of T-2 (3.87 nM) (HEK293T): 0.97 ± 0.07 Add
type of interaction, mixture of DAS (6.58 nM) (HEK293T): 0.90 ± 0.05 Add (key: Syn: Combination index (CI) < 0.9; Add: 0.9 ≤ CI ≤ 1; Ant: CI > 1)
type of interaction, mixture of HT-2 (21.22 nM) (HEK293T): 0.92 ± 0.06 Add (key: Syn: Combination index (CI) < 0.9; Add: 0.9 ≤ CI ≤ 1; Ant: CI > 1)
type of interaction, mixture of T-2 (3.87 nM) (HEK293T): 0.97 ± 0.07 Add (key: Syn: Combination index (CI) < 0.9; Add: 0.9 ≤ CI ≤ 1; Ant: CI > 1)

COc1c(C)c2c(c(O)c1C/C=C(\C)CCC(=O)O)C(=O)OC2 [MPA, mycophenolic acid, reference compound]
transepithelial transport, Apical Medium (Caco-2 cells [2]; [8]): 57.27 ± 0.79^ef %
transepithelial transport, Basolateral Medium (Caco-2 cells [2]; [8]): 39.77 ± 0.52^f %
transepithelial transport, Caco-2 Cells (Caco-2 cells [2]; [8]): 0.00 ± 0.00^a %
transepithelial transport, Raw 264.7 Cells (Caco-2 cells [2]; [8]): 0.02 ± 0.00^a %
transepithelial transport, Total (Caco-2 cells [2]; [8]): 97.07 ± 0.27^e %
IC50 [6]: > 156 nM
percentage of DNA in comet tail with respect to the negative control (HEK 293T cells): no significant DNA damage
combination index, mixture of DAS (6.58 nM) (HEK293T): 0.83 ± 0.07 Syn
combination index, mixture of HT-2 (21.22 nM) (HEK293T): 0.90 ± 0.04 Add
combination index, mixture of T-2 (3.87 nM) (HEK293T): 0.85 ± 0.05 Syn
type of interaction, mixture of DAS (6.58 nM) (HEK293T): 0.83 ± 0.07 Syn (key: Syn: Combination index (CI) < 0.9; Add: 0.9 ≤ CI ≤ 1; Ant: CI > 1)
type of interaction, mixture of HT-2 (21.22 nM) (HEK293T): 0.90 ± 0.04 Add (key: Syn: Combination index (CI) < 0.9; Add: 0.9 ≤ CI ≤ 1; Ant: CI > 1)
type of interaction, mixture of T-2 (3.87 nM) (HEK293T): 0.85 ± 0.05 Syn (key: Syn: Combination index (CI) < 0.9; Add: 0.9 ≤ CI ≤ 1; Ant: CI > 1)
IC50 (in vitro): > 50 nM

CC[C@H](C)[C@H]1C(=O)O[C@H](C(C)C)C(=O)N(C)[C@@H](C(C)C)C(=O)O[C@H](C(C)C)C(=O)N(C)[C@@H](C(C)C)C(=O)O[C@H](C(C)C)C(=O)N1C [ENN-B1, enniatin B1]
transepithelial transport, Apical Medium (Caco-2 cells [2]; [8]): 10.46 ± 2.43^a %
transepithelial transport, Basolateral Medium (Caco-2 cells [2]; [8]): 28.16 ± 3.37^e %
transepithelial transport, Caco-2 Cells (Caco-2 cells [2]; [8]): 0.51 ± 0.03^ab %
transepithelial transport, Raw 264.7 Cells (Caco-2 cells [2]; [8]): 0.60 ± 0.10^c %
transepithelial transport, Total (Caco-2 cells [2]; [8]): 39.72 ± 4.74^ab %
concentration with significant DNA damage (Caco-2 cells [7]): 3000 nM
concentration with statistically significant decrease in viability of cells (cells): 2 µM
combination index, mixture of DAS (6.58 nM) (HEK293T): 0.82 ± 0.06 Syn
combination index, mixture of HT-2 (21.22 nM) (HEK293T): 0.90 ± 0.05 Add
combination index, mixture of T-2 (3.87 nM) (HEK293T): 0.88 ± 0.07 Syn
type of interaction, mixture of DAS (6.58 nM) (HEK293T): 0.82 ± 0.06 Syn (key: Syn: Combination index (CI) < 0.9; Add: 0.9 ≤ CI ≤ 1; Ant: CI > 1)
type of interaction, mixture of HT-2 (21.22 nM) (HEK293T): 0.90 ± 0.05 Add (key: Syn: Combination index (CI) < 0.9; Add: 0.9 ≤ CI ≤ 1; Ant: CI > 1)
type of interaction, mixture of T-2 (3.87 nM) (HEK293T): 0.88 ± 0.07 Syn (key: Syn: Combination index (CI) < 0.9; Add: 0.9 ≤ CI ≤ 1; Ant: CI > 1)
IC50 (in vitro): > 50 nM

C[C@H]1CCC[C@@H](O)CCC/C=C/c2cc(O)cc(O)c2C(=O)O1 [β-ZEA]
share of total metabolites produced by Caco-2 cells (Caco-2 cells [1]): 32%

CC(C)[C@H]1C(=O)O[C@H](C(C)C)C(=O)N(C)[C@@H](C(C)C)C(=O)O[C@H](C(C)C)C(=O)N(C)[C@@H](C(C)C)C(=O)O[C@H](C(C)C)C(=O)N1C [ENN-B, enniatin B]
metabolites found by non-target U-HPLC-MS analysis (Caco-2 cells [2]; [8]): metabolite M6
transepithelial transport, Apical Medium (Caco-2 cells [2]; [8]): 24.08 ± 3.20^abc %
transepithelial transport, Basolateral Medium (Caco-2 cells [2]; [8]): 25.49 ± 4.31^e %
transepithelial transport, Caco-2 Cells (Caco-2 cells [2]; [8]): 1.15 ± 0.25^b %
transepithelial transport, Raw 264.7 Cells (Caco-2 cells [2]; [8]): 0.31 ± 0.03^b %
transepithelial transport, Total (Caco-2 cells [2]; [8]): 51.02 ± 7.70^bc %
genotoxic effect (Caco-2 cells [7]; 3 µM): did not show genotoxic effect
concentration with statistically significant decrease in viability of cells (cells): 2 µM
combination index, mixture of DAS (6.58 nM) (HEK293T): 0.79 ± 0.08 Syn
combination index, mixture of HT-2 (21.22 nM) (HEK293T): 0.87 ± 0.05 Syn
combination index, mixture of T-2 (3.87 nM) (HEK293T): 1.11 ± 0.10 Ant
type of interaction, mixture of DAS (6.58 nM) (HEK293T): 0.79 ± 0.08 Syn (key: Syn: Combination index (CI) < 0.9; Add: 0.9 ≤ CI ≤ 1; Ant: CI > 1)
type of interaction, mixture of HT-2 (21.22 nM) (HEK293T): 0.87 ± 0.05 Syn (key: Syn: Combination index (CI) < 0.9; Add: 0.9 ≤ CI ≤ 1; Ant: CI > 1)
type of interaction, mixture of T-2 (3.87 nM) (HEK293T): 1.11 ± 0.10 Ant (key: Syn: Combination index (CI) < 0.9; Add: 0.9 ≤ CI ≤ 1; Ant: CI > 1)
IC50 (in vitro): > 50 nM
